Reference: the supplement of paper PMC11061612

Columns and labels:
[1] = system: Becker (Low Grade Glioma); assay: Bliss excess, mean over the matrix (fraction); higher = more synergy
How it was run: (§1)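 After 24 hours at 37°C and 5% CO2 in 1536-well plates, cells in DMEM/F12 or RPMI plus 10% FBS received two-drug dose matrices for 72 hours. Viability came from CellTiter-Glo 2.0 luminescence and was scaled as inhibition, anchored at 0 by vehicle wells and at 1 by blank wells. Combination Emax is taken as the second-highest inhibition in the matrix, and Bliss excess as the observed combination effect less EA + EB − EA·EB, with EA and EB the single-agent effects.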

CHL-1 (Melanoma) [2] = assay: as above
How it was run: as §1

[3] = system: CML-T1 (Chronic Myelogenous Leukemia); assay: as above
How it was run: as §1

[4] = system: COLO-684 (Endometrial Carcinoma); assay: as above
How it was run: as §1

[5] = system: EB-3 (Burkitt's Lymphoma); assay: as above
How it was run: as §1

[6] = system: FLO-1 (Esophageal Adenocarcinoma); assay: as above
How it was run: as §1

[7] = system: HCC-44 (Lung Adenocarcinoma); assay: as above
How it was run: as §1

KYM-1 (Rhabdomyosarcoma) [8] = assay: as above
How it was run: as §1

[9] = system: KYSE-70 (Esophageal Squamous Cell Carcinoma); assay: as above
How it was run: as §1

[10] = system: LAMA-84 (Chronic Myelogenous Leukemia); assay: as above
How it was run: as §1

[11] = system: LOUCY (T-Lymphoblastic Leukemia); assay: as above
How it was run: as §1

[12] = system: NCI-H1755 (Lung Adenocarcinoma); assay: as above
How it was run: as §1

[13] = system: NCI-H810 (Non-Small Cell Lung Carcinoma); assay: as above
How it was run: as §1

[14] = system: NKM-1 (Acute Myeloid Leukemia); assay: as above
How it was run: as §1

[15] = system: OV-90 (Ovarian Carcinoma); assay: as above
How it was run: as §1

[16] = system: PANC-02-03 (Pancreatic Carcinoma); assay: as above
How it was run: as §1

[17] = system: PC-14 (Lung Adenocarcinoma); assay: as above
How it was run: as §1

[18] = system: RMG-I (Ovarian Carcinoma); assay: as above
How it was run: as §1

[19] = system: SK-MM-2 (Plasma Cell Myeloma); assay: as above
How it was run: as §1

[20] = system: SW684 (Other Solid Carcinomas); assay: as above
How it was run: as §1

[21] = system: Becker (Low Grade Glioma); assay: combination Emax (second highest fraction inhibited in the dose matrix, 72 h); higher = more inhibition; extreme values may be limits of the assay
How it was run: as §1

CHL-1 (Melanoma) [22] = assay: as above
How it was run: as §1

[23] = system: CML-T1 (Chronic Myelogenous Leukemia); assay: as above
How it was run: as §1

[24] = system: COLO-684 (Endometrial Carcinoma); assay: as above
How it was run: as §1

[25] = system: EB-3 (Burkitt's Lymphoma); assay: as above
How it was run: as §1

[26] = system: FLO-1 (Esophageal Adenocarcinoma); assay: as above
How it was run: as §1

[27] = system: HCC-44 (Lung Adenocarcinoma); assay: as above
How it was run: as §1

KYM-1 (Rhabdomyosarcoma) [28] = assay: as above
How it was run: as §1

[29] = system: KYSE-70 (Esophageal Squamous Cell Carcinoma); assay: as above
How it was run: as §1

[30] = system: LAMA-84 (Chronic Myelogenous Leukemia); assay: as above
How it was run: as §1

[31] = system: LOUCY (T-Lymphoblastic Leukemia); assay: as above
How it was run: as §1

[32] = system: NCI-H1755 (Lung Adenocarcinoma); assay: as above
How it was run: as §1

[33] = system: NCI-H810 (Non-Small Cell Lung Carcinoma); assay: as above
How it was run: as §1

[34] = system: NKM-1 (Acute Myeloid Leukemia); assay: as above
How it was run: as §1

[35] = system: OV-90 (Ovarian Carcinoma); assay: as above
How it was run: as §1

[36] = system: PANC-02-03 (Pancreatic Carcinoma); assay: as above
How it was run: as §1

[37] = system: PC-14 (Lung Adenocarcinoma); assay: as above
How it was run: as §1

[38] = system: RMG-I (Ovarian Carcinoma); assay: as above
How it was run: as §1

[39] = system: SK-MM-2 (Plasma Cell Myeloma); assay: as above
How it was run: as §1

[40] = system: SW684 (Other Solid Carcinomas); assay: as above
How it was run: as §1
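Throughout, for Bliss excess, mean over the matrix: after 72 h of two-drug dosing.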

SMILES	Bliss excess [1]	Bliss excess (CHL-1 (Melanoma) [2])	Bliss excess [3]	Bliss excess [4]	Bliss excess [5]	Bliss excess [6]	Bliss excess [7]	Bliss excess (KYM-1 (Rhabdomyosarcoma) [8])	Bliss excess [9]	Bliss excess [10]	Bliss excess [11]	Bliss excess [12]	Bliss excess [13]	Bliss excess [14]	Bliss excess [15]	Bliss excess [16]	Bliss excess [17]	Bliss excess [18]	Bliss excess [19]	Bliss excess [20]	combination Emax [21]	combination Emax (CHL-1 (Melanoma) [22])	combination Emax [23]	combination Emax [24]	combination Emax [25]	combination Emax [26]	combination Emax [27]	combination Emax (KYM-1 (Rhabdomyosarcoma) [28])	combination Emax [29]	combination Emax [30]	combination Emax [31]	combination Emax [32]	combination Emax [33]	combination Emax [34]	combination Emax [35]	combination Emax [36]	combination Emax [37]	combination Emax [38]	combination Emax [39]	combination Emax [40]
O=C(c1cc(Cc2n[nH]c(=O)c3ccccc23)ccc1F)N1CCN(C(=O)C2CC2)CC1 [Olaparib] + Cc1c2c(nn1C)CSCc1cc(n(C)n1)CSc1cc(c3ccccc3c1)OCCCc1c(C(=O)O)n(C)c3c-2c(Cl)ccc13 [AZD5991] (first compound max 10 µM, 7x7, partner max 1 µM)	-0.0125	-0.0174	-0.0255	-0.0104	-0.0579	-0.0102	-0.0267	0.0435	-0.032	-0.0136	-0.0086	-0.0215	-0.0578	0.0786	-0.0554	-0.0465	-0.0279	-0.0627	-0.0093	-0.0763	0.22	0.312	0.832	0.224	0.0218	0.253	0.117	0.832	0.104	0.223	0.234	0.18	0.49	1	0.114	0.128	0.0956	0.123	0.111	0.0699
N#Cc1cnc(Nc2cc(NC[C@H]3CNCCO3)c(C(F)(F)F)cn2)cn1 [SRA737] + C=CCn1c(=O)c2cnc(Nc3ccc(N4CCN(C)CC4)cc3)nc2n1-c1cccc(C(C)(C)O)n1 [AZD1775] (first compound max 10 µM, partner max 1 µM)	0.176	0.0512	0.0611	0.0602	0.0314	-0.0189	0.0685	0.0382	0.0613	0.0718	0.138	-0.0377	0.0718	0.0732	-0.0401	-0.0172	0.0602	-0.0477	0.0284	-0.0677	0.705	0.837	1	0.864	0.798	0.803	0.732	0.947	0.561	0.943	1	0.77	0.81	0.976	0.425	0.42	0.882	0.35	0.452	0.277
N#Cc1cnc(Nc2cc(NC[C@H]3CNCCO3)c(C(F)(F)F)cn2)cn1 [SRA737] + CCc1c2c(nc3ccc(O)cc13)-c1cc3c(c(=O)n1C2)COC(=O)[C@]3(O)CC [SN-38] (first compound max 10 µM, 7x7, partner max 0.3 µM)	-0.0297	0.0724	-0.0022	0.0144	-0.0157	0.0593	0.124	-0.0207	0.0857	-0.023	0.102	-0.0327	0.0918	-0.0365	-0.0976	-0.0673	0.0164	-0.0426	0.014	-0.0846	0.865	0.807	1	0.878	0.828	0.815	0.904	0.945	0.683	0.953	0.952	0.871	0.829	0.995	0.519	0.674	0.816	0.484	0.776	0.459
N#Cc1cnc(Nc2cc(NC[C@H]3CNCCO3)c(C(F)(F)F)cn2)cn1 [SRA737] + Nc1ccn([C@@H]2O[C@H](CO)[C@@H](O)C2(F)F)c(=O)n1 [Gemcitabine] (first compound max 10 µM, 7x7, partner max 0.3 µM)	0.0323	0.0859	0.0539	-0.0824	0.125	0.124	0.149	-0.0294	0.0297	0.039	0.127	0.0184	0.112	0.0289	-0.0752	0.0122	0.0155	-0.042	0.112	0.0294	0.747	0.803	1	0.657	0.806	0.908	0.853	1	0.643	0.973	0.96	0.775	0.779	1	0.609	0.595	0.806	0.402	0.708	0.494
N#Cc1cnc(Nc2cc(NC[C@H]3CNCCO3)c(C(F)(F)F)cn2)cn1 [SRA737] + O=c1[nH]cc(F)c(=O)[nH]1 [5-Fluorouracil] (first compound max 10 µM, 7x7, partner max 20 µM)	0.0222	-0.0351	-0.0498	-0.0334	-0.0561	0.0266	0.125	-0.0559	-0.0214	-0.057	-0.0122	0.0078	-0.0924	-0.0812	-0.0306	0.0463	-0.0109	-0.0735	-0.034	-0.0315	0.644	0.494	0.994	0.644	0.624	0.803	0.861	0.927	0.196	0.913	0.911	0.679	0.427	0.919	0.247	0.407	0.696	0.106	0.473	0.273
Cc1nc(-c2cn3c(n2)-c2ccc(-c4cnn(C(C)(C)C(N)=O)c4)cc2OCC3)n(C(C)C)n1 [Taselisib] + O=C(Nc1ccc2[nH]nc(-c3ccncc3)c2c1)[C@@H]1CCN(CC(=O)N2CCN(c3ccc(-c4ncccn4)cc3)CC2)C1 [SCH772984] (first compound max 10 µM, 7x7, partner max 5 µM)	0.0868	0.0652	0.0342	-0.0183	0.0114	0.115	0.0906	0.0003	0.0674	0.11	0.0209	0.0655	-0.0601	0.0911	0.0451	0.126	0.133	-0.0455	0.0166	0.0283	0.757	0.575	0.493	0.63	0.493	0.737	0.983	0.671	0.686	0.999	0.627	0.991	0.104	1	0.827	0.906	0.973	0.599	0.349	0.823
CC1(C)CCC(CN2CCN(c3ccc(C(=O)NS(=O)(=O)c4ccc(NCC5CCOCC5)c([N+](=O)[O-])c4)c(Oc4cnc5[nH]ccc5c4)c3)CC2)=C(c2ccc(Cl)cc2)C1 [Venetoclax] + CS(=O)(=O)CCNCc1ccc(-c2ccc3ncnc(Nc4ccc(OCc5cccc(F)c5)c(Cl)c4)c3c2)o1 [Lapatinib] (first compound max 1 µM, 7x7, partner max 10 µM)	-0.0179	0.0208	0.0154	-0.0236	-0.0478	-0.0279	-0.0326	-0.0027	-0.0418	-0.0046	0.0911	-0.031	-0.065	0.108	-0.0522	-0.0113	-0.013	0.0483	0.0104	-0.0757	0.147	0.528	0.539	0.343	0.568	0.318	0.226	0.291	0.145	0.182	1	0.262	0.181	0.764	0.149	0.294	0.909	0.493	1	0.112
